In patent US9113629B2, “4-amino-6-(4-substituted-phenyl)-picolinates and 6-amino-2-(4-substituted-phenyl)-pyrimidine-4-carboxylates and their use as herbicides” (DOW AGROSCIENCES LLC, priority 2013, dated 2015):
Read-outs that look alike come from different tables or passages of the source.

Key:
[1] = test system: Key Grass and Sedge Weeds as well as Grass Crops; test: Post-emergent Test II herbicidal activity (Table 6); type: in vivo; conditions: post-emergence, 336 h; for pest or weed control at 70 g/ha: application rate 70 g ai/ha; for pest or weed control at 140 g/ha: application rate 140 g ai/ha
In short: (§1)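 Visual injury ratings (0 = no injury, 100 = complete kill) were taken 14 d after treatment, relative to untreated plants. Seedlings at the first–second true leaf stage received overhead spray at 187 L/ha; the highest rate was serially diluted to ½×, ¼×, ⅛× and 1/16×.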

[2] = test system: Key Broadleaf Weed and Crop Species; test: Post-emergent Test II herbicidal activity (Table 5); type: in vivo; conditions: post-emergence, 336 h, post-emergent, 14 days after application; for pest or weed control at 70 g/ha: application rate 70 g ai/ha; for pest or weed control at 140 g/ha: application rate 140 g ai/ha
In short: as §1

[3] = CYPES: yellow nutsedge (Cyperus esculentus), read-out: Visual Growth Reduction (%) 14 Days After Application, CYPES
[4] = DIGSA: crabgrass (Digitaria sanguinalis), read-out: Visual Growth Reduction (%) 14 Days After Application, DIGSA
[5] = ECHCG: barnyardgrass (Echinochloa crus-galli), read-out: Visual Growth Reduction (%) 14 Days After Application, ECHCG
[6] = ORYSA: rice (Oryza sativa), read-out: Visual Growth Reduction (%) 14 Days After Application, ORYSA
[7] = SETFA: giant foxtail (Setaria faberi), read-out: Visual Growth Reduction (%) 14 Days After Application, SETFA
[8] = SORVU: grain sorghum (Sorghum vulgare), read-out: Visual Growth Reduction (%) 14 Days After Application, SORVU
[9] = TRZSS (wheat, Triticum aestivum), read-out: Visual Growth Reduction (%) 14 Days After Application, TRZSS
[10] = ZEAMX: maize, corn (Zea mays), read-out: Visual Growth Reduction (%) 14 Days After Application, ZEAMX
[11] = ABUTH: velvetleaf (Abutilon theophrasti), read-out: Visual Growth Reduction (%) 14 Days After Application, ABUTH
[12] = AMARE: redroot pigweed (Amaranthus retroflexus), read-out: Visual Growth Reduction (%) 14 Days After Application, AMARE
[13] = BRSNN: oilseed-rape, canola (Brassica napus), read-out: Visual Growth Reduction (%) 14 Days After Application, BRSNN
[14] = CHEAL: lambsquarters (Chenopodium album), read-out: Visual Growth Reduction (%) 14 Days After Application, CHEAL
[15] = EPHHL: wild poinsettia (Euphorbia heterophylla), read-out: Visual Growth Reduction (%) 14 Days After Application, EPHHL
[16] = HELAN: sunflower (Helianthus annuus), read-out: Visual Growth Reduction (%) 14 Days After Application, HELAN
[17] = VIOTR: wild pansy (Viola tricolor), read-out: Visual Growth Reduction (%) 14 Days After Application, VIOTR

Compound: Nc1cc(-c2cc(F)c(C(F)F)cc2F)nc(C(=O)O)c1Cl [Compound 174]
- pest or weed control at 70 g/ha [1, 3]: 60 to 74%
- pest or weed control at 140 g/ha [1, 3]: 85 to 94%
- pest or weed control at 70 g/ha [1, 4]: 0 to 29%
- pest or weed control at 140 g/ha [1, 4]: 45 to 59%
- pest or weed control at 70 g/ha [1, 5]: 60 to 74%
- pest or weed control at 140 g/ha [1, 5]: 85 to 94%
- pest or weed control at 70 g/ha [1, 6]: 0 to 29%
- pest or weed control at 140 g/ha [1, 6]: 0 to 29%
- pest or weed control at 70 g/ha [1, 7]: 0 to 29%
- pest or weed control at 140 g/ha [1, 7]: 45 to 59%
- pest or weed control at 70 g/ha [1, 8]: 0 to 29%
- pest or weed control at 140 g/ha [1, 8]: 0 to 29%
- pest or weed control at 70 g/ha [1, 9]: 0 to 29%
- pest or weed control at 140 g/ha [1, 9]: 0 to 29%
- pest or weed control at 70 g/ha [1, 10]: 0 to 29%
- pest or weed control at 140 g/ha [1, 10]: 0 to 29%
- melting point: 171.8 to 173.9 °C
- pest or weed control at 70 g/ha [2, 11]: 75 to 84%
- pest or weed control at 140 g/ha [2, 11]: 75 to 84%
- pest or weed control at 70 g/ha [2, 12]: 95 to 100%
- pest or weed control at 140 g/ha [2, 12]: 95 to 100%
- pest or weed control at 70 g/ha [2, 13]: 95 to 100%
- pest or weed control at 140 g/ha [2, 13]: 95 to 100%
- pest or weed control at 70 g/ha [2, 14]: 95 to 100%
- pest or weed control at 140 g/ha [2, 14]: 95 to 100%
- pest or weed control at 70 g/ha [2, 15]: 95 to 100%
- pest or weed control at 140 g/ha [2, 15]: 95 to 100%
- pest or weed control at 70 g/ha [2, 16]: 95 to 100%
- pest or weed control at 140 g/ha [2, 16]: 95 to 100%
- pest or weed control at 70 g/ha [2, 17]: 45 to 59%
- pest or weed control at 140 g/ha [2, 17]: 60 to 74%
